Source: paper PMC6754302 (Cell chemical biology, 2019)
Entries after “also recorded” stand apart in the source; their conditions may differ. One block for each compound: values may come before it.

Assays:
caspase-6 (C6) [1] = target: T1, caspase-6 (C6) (Homo sapiens, UniProt P55212); assay: TR-FRET-based C6 activity assay with HTT1–1212 as substrate; format: biochemical; details: for shift of dose-response curve with pre-incubation time: 0 min vs 60 min pre-incubation of C6 with compound
T1 sequence (P55212 24-179 limits assumed): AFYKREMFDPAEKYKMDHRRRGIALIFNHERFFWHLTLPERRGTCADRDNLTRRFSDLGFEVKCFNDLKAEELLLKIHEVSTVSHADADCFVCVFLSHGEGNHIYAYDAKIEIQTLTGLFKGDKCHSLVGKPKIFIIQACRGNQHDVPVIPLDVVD
T1 sequence (P55212 194-293 limits assumed): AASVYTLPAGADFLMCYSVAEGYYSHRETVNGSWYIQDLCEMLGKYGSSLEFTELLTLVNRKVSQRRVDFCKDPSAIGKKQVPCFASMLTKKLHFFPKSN

caspase-6 (C6) [2] = target: T1, caspase-6 (C6); assay: C6 activity assay using the VEID-AFC peptide as a substrate; format: biochemical
[3] = target: T2, intracellular C6 activity (Homo sapiens, UniProt P55212); assay: Intracellular lamin A cleavage ELISA; format: cell-based
T2 sequence (P55212 24-293): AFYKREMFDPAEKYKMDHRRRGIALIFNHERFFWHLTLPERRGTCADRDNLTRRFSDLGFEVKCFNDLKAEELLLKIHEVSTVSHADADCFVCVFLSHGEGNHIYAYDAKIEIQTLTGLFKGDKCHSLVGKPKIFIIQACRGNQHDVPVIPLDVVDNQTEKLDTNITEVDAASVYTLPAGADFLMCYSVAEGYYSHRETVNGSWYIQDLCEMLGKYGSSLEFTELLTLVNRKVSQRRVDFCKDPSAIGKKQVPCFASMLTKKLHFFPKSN

C6 = target: T3, C6 (Homo sapiens, UniProt P55212); format: cell-based; details: for intracellular C6-mediated cleavage of HTT1–1212 (HTT1–586 fragment): COS-7 cells co-transfected with C6 and HTT1–1212, compound in the media
T3 sequence (P55212 24-293): T2 sequence (P55212 24-293)

Recombinant C6 enzyme [4] = target: T4, Recombinant C6 enzyme (Homo sapiens, UniProt P55212); assay: Washout experiment; format: biochemical; details: read-out: inhibition of C6 activity after washout
T4 sequence (P55212 24-179 limits assumed): T1 sequence (P55212 24-179 limits assumed)
T4 sequence (P55212 194-293 limits assumed): T1 sequence (P55212 194-293 limits assumed)

C6-HTT interaction = target: T5, C6-HTT interaction (Homo sapiens, UniProt P55212); assay: Co-immunoprecipitation of HTT with DDK-tagged C6 from co-transfected COS-7 cells; format: cell-based
T5 sequence (P55212 24-293): T2 sequence (P55212 24-293)

pro-C6 (C6 zymogen) [5] = target: T6, pro-C6 (C6 zymogen) (Homo sapiens, UniProt P55212); assay: LE22 labelling of C6 in lysates of transfected COS-7 cells; format: cell-based
T6 sequence (P55212 1-293): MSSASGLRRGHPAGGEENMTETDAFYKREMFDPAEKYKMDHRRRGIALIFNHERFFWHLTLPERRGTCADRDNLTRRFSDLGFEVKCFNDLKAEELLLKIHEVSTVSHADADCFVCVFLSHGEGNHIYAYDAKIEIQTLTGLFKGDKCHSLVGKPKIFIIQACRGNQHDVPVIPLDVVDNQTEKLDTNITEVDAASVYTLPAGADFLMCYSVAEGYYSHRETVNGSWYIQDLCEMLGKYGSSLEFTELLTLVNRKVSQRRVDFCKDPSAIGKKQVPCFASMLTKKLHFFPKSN

pro-C6 (C6 zymogen) [6] = assay: as above; format: cell-based, human; details: 10 μM in the culture medium, co-transfection with mHTT1–586
Recombinant C6 enzyme [7] = target: T4, Recombinant C6 enzyme; details: 10 μM inhibitor

- inhibition of HTT proteolysis (caspase-6 (C6) [1]): strong inhibition
- shift of dose-response curve with pre-incubation time (caspase-6 (C6) [1]): shift towards a lower IC50 value
- inhibitory effect on C6-mediated cleavage of small peptide substrates (VEID-AFC) (caspase-6 (C6) [2]): minimal inhibitory effect
- inhibition of lamin A proteolysis [3]: strong inhibition
- intracellular C6-mediated cleavage of HTT1–1212 (HTT1–586 fragment) (C6): inhibited
- inhibition at 10 µM (Recombinant C6 enzyme [4]): 100%
- reduction in HTT co-immunoprecipitation (C6-HTT interaction; PG3d 10 μM in the media, mHTT1–1212): 50%
- mHTT1–586-induced increase of LE22 binding to pro-C6 (C6wt) (pro-C6 (C6 zymogen) [5]; 10 μM in the culture medium, co-transfection with mHTT1–586): completely reversed
Compound: O=c1oc(C#Cc2ccccc2)nc(O)c1Cc1ccccc1 [PG3d, 5-Benzyl-4-hydroxy-2-(phenylethynyl)-6H-1,3-oxazin-6-one]
- LE22 labelling for deltaPro and D23A C6 (pro-C6 (C6 zymogen) [6]): normalized the amount of LE22 labelling
- LE22 labelling of C6 after inhibitor pre-incubation (Recombinant C6 enzyme [7]): did not block accessibility of the active site

- LE22 labelling of C6 after inhibitor pre-incubation (Recombinant C6 enzyme [7]): prevented labelling of C6 with LE22
Compound: zVAD-fmk

- intracellular C6-mediated cleavage of HTT1–1212 (HTT1–586 fragment) (C6): lowers HTT1–586 fragment levels
- proportion of pro-C6 and p18-C6 labelled with LE22 (pro-C6 (C6 zymogen) [5]; C6-transfected cells treated with Q-VD-OPh prior to lysis): decreased
Compound: CC(C)[C@H](NC(=O)c1ccc2ccccc2n1)C(=O)N[C@@H](CC(=O)O)C(=O)COc1c(F)cccc1F [Q-VD-OPh]
- intracellular generation of active C6 subunits (p18) (C6; COS-7 cells co-transfected with C6 and HTT1–1212, Q-VD-OPh 3 μM): reduces the intracellular generation of active C6 subunits
- effect on co-immunoprecipitation of HTT with C6 (C6-HTT interaction; Q-VD-OPh 3 μM): not prevented; also recorded: no significant difference

- shift of dose-response curve with pre-incubation time (caspase-6 (C6) [1]): did not exhibit time-dependent behaviour
Compound: VDVAD-CHO [reference compound]
- LE22 labelling of C6 after inhibitor pre-incubation (Recombinant C6 enzyme [7]): is replaced by the irreversible binding of the LE22 probe
